This is an account of results in PubChem BioAssay AID2305 (GlaxoSmithKline (GSK), 2010).

As a reminder, the IC50 is the midpoint of a concentration-inhibition curve. The low end stands for greater potency, the high end for weaker potency.

The assay relates to P. falciparum 3D7 growth, pLDH absorbance. The assay is described as follows: P. falciparum 3D7 growth inhibition, dose response, strain 3D7 (AID 2305).

Structures are written as SMILES.

For the compound `CNC(=O)c1cnc(Nc2ccc(N3CCN(C)CC3)c(C)c2)nc1NC`, the IC50 worked out at 870 nM.
Turning to `CCNc1cc(C(=O)N[C@@H](Cc2ccccc2)[C@H](O)CNC(C)(C)CSCC(C)C)cc(N2CCCC2=O)c1`, the IC50 came out at 260 nM. This IC50 is about 3.3-fold lower than that of the compound before.
The same measure for `O=C(Cc1ccc(Cl)cc1)Nc1cc(Cl)ccc1Cn1cnc(N2CCNCC2)cc1=O`: 1000 nM; for `CC(Oc1ccc(Cl)cc1)C(=O)N(C)C1CCN(CCCCCNC(=O)/C=C/c2ccc(Cl)c(Cl)c2)CC1` (configuration not stated): 960 nM.
The same measure for `Cc1cc(Nc2cc(Cl)cc(Cl)c2)nc(N)n1`: 1140 nM; for `O=C(Nc1ccc(Oc2ccccc2)cc1)N(Cc1ccc(-c2ccc(CN3CCNCC3)cc2)cc1)C1CCN(Cc2ccccc2)CC1`: 890 nM; for `O=C(Nc1cc(C(F)(F)F)cc(C(F)(F)F)c1)c1cc(Cl)ccc1O`: 1310 nM.
As to `COc1ccc(CNc2nccc3ccc(-c4ccc5nccn5c4)cc23)cc1`, the IC50 was determined as 880 nM.
Under `CC(=O)c1cccc2[nH]c(C(=O)NC3CCC(CCN4CCc5ccc(C#N)cc5C4)CC3)cc12` (configuration not stated) stands 840 nM.
The same measure for `Cc1c(Br)cc2[nH]c(-c3ccc(C(=O)NC4CCN(Cc5ccccc5)CC4)cc3)nc2c1C`: 330 nM.
Under `NC(N)=NN=CC(=O)Nc1ccc(Br)cc1` stands 880 nM.
The compound `CCOc1ccc(C(=O)Nc2cc(Cl)ccc2O)cc1Cl` came in with an IC50 of 700 nM.
Under `CS(=O)(=O)c1cccc(-c2cnc(N)c3cc(-c4ccc5c(c4)OCO5)ccc23)c1` stands 1040 nM; under `COc1ccc(CCN(C)CCc2ccc(NC(=O)c3cccc4c(=O)c5ccccc5sc34)cc2)cc1`, 860 nM; under `CCCCCCOc1ccc(C(=O)NCCCC2CCN(CCCCCNC(=O)C=Cc3ccc(Cl)c(Cl)c3)CC2)cc1`, 850 nM.
For the compound `COc1ccc(NC(=O)Nc2ccc(-c3cccc(-c4nc5ccccc5[nH]4)c3)cc2)cc1`, the IC50 worked out at 760 nM.
Under `COc1ccc(NC(=O)N2CCN(CCCCCNC(=O)/C=C/c3ccc(C(F)(F)F)cc3)CC2)cc1Cl` stands 860 nM; under `c1cncc(CCNCc2cccc(-c3csc(-c4nc5ccccc5[nH]4)c3)c2)c1`, 700 nM.
The same measure for `CNCC(C)(C)c1nc(-c2ccc(Cl)c(O)c2)c(-c2ccncc2)[nH]1`: 740 nM; for `O=C(Nc1cc(Cl)cc(Cl)c1)N[C@H]1CCN(CCCCCNC(=O)[C@@H]2C[C@H]2c2ccc(Cl)c(Cl)c2)C1`: 860 nM; for `O=C(CCn1cncn1)N1CCCC(c2[nH]c3ccccc3c2-c2ccncc2)C1` (configuration not stated): 800 nM.
Turning to `CC(Cc1ccc(NC(=O)c2ccc(CC(C)NCc3ccc(Cl)c(Cl)c3)cc2)cc1)NCCc1cccc(Cl)c1` (configuration not stated), the IC50 turned out to be 1000 nM.
Consider `COc1ccc(-c2ccc(S(=O)(=O)Nc3cc4c(cc3OC(C)C)CCNCC4)cc2)cc1`, for which the IC50 turned out to be 970 nM.
Under `O=C(Nc1cccc(-c2cc(-c3c(Cl)cccc3Cl)no2)c1)c1cnc2ccccc2c1` stands 1100 nM; under `Cc1nc2c(s1)c(=O)cc(CCc1cccc(F)c1F)n2CC(=O)N(Cc1ccc(-c2ccc(C(F)(F)F)cc2)cc1)C1CCN(C(C)C)CC1`, 770 nM.
Compound `CC(=O)Nc1ccc(CN2CCC(NC(=O)c3ccc(-c4cccc(Cl)c4)s3)CC2)cc1` showed an IC50 of 790 nM. The IC50 values of the last two compounds are within 1.5-fold of each other.
Under `COc1ccccc1CCNc1nc(C)cc(N[C@@H](CC(C)C)C(=O)NCc2cccc(F)c2)n1` stands 970 nM; under `c1ccc(CCNCc2ccc(-c3cccc(-c4nc5ccccc5[nH]4)c3)cc2)nc1`, 620 nM; under `Cc1noc(-c2ccc3c(c2)CCN(CCC2CCC(NC(=O)c4cc5ccccc5[nH]4)CC2)CC3)n1` (configuration not stated), 690 nM.
In the case of `Cc1ccc2c(=O)c3cc(C)ccc3[nH]c2c1`, the IC50 is 420 nM. Against the preceding compound, the IC50 is about 1.6-fold lower.
The same measure for `Oc1ccc(CN2CCC(NCc3cccc(C(F)(F)F)c3)CC2)cc1`: 680 nM.
The same measure for `NC(=O)c1cccc(C(=O)Nc2cccc(-c3cccc(-c4nc5ccccc5[nH]4)c3)c2)c1`: 550 nM; for `CCCC(=O)Nc1ccc(OCCCN(Cc2ccccc2F)c2ccc(C#N)c(C(F)(F)F)c2)cc1`: 590 nM.
Under `NC1=NC2(CCCCC2)N(OCCCCCCC2CCCCC2)C(N)=N1` stands 360 nM.
In the case of `CCCCN=C(N)Nc1ccc(OCCCOc2ccc(NC(N)=NCCCC)cc2)cc1`, the IC50 was found to be 160 nM. Against the preceding compound, the IC50 is about 2.2-fold lower.
Under `CCOc1c(CNCCCNc2cc(=O)c3ccccc3[nH]2)cc(Br)cc1OC` stands 1160 nM.
Under `COc1cc(CN=C(Nc2ccc(-c3ccccc3)cc2)Nc2ccc(C#N)cc2O)cc(OC)c1` stands 720 nM; under `Cc1ccc(N(CCC(=N)N)Cc2ccccc2)cc1`, 660 nM; under `COc1cc(Nc2nccc(NCC(O)c3ccc(C(F)(F)F)cc3)n2)cc(OC)c1OC` (configuration not stated), 920 nM.
The same measure for `O=C(CC(=O)Nc1cc(Cl)cc(Cl)c1)Nc1cc(Cl)cc(Cl)c1`: 160 nM; for `O=C(/C=C/c1ccc(C(F)(F)F)cc1)NCCCCCN1CCCN(C(=O)Nc2ccc(F)c(Cl)c2)CC1`: 370 nM; for `CN(C)Cc1ccc(O)c(-c2ccc(C(C)(C)C)cc2)n1`: 1080 nM.
`O=C(NCC1CCCCC1)c1cc(=O)c2ccccc2o1` showed an IC50 of 320 nM.
The same measure for `Cc1ccc(CN2CCCN(Cc3ccc(C(=O)Nc4ccc(Cl)cc4)cc3)CC2)s1`: 1110 nM; for `N#Cc1ccc2c(c1)CCN(CCC1CCC(NC(=O)/C=C/c3cc(Br)cs3)CC1)CC2` (configuration not stated): 1000 nM; for `O=S(=O)(Nc1ccc(-c2ccc(CN3CCCC3)cc2)cc1)c1cccc2cccnc12`: 1020 nM.
Under `Cc1noc(C)c1-c1cccc(CNCc2ccc(-c3ccc(-c4nc5ccc(F)cc5[nH]4)cc3)cc2)c1` stands 210 nM; under `Cn1nc(-c2ccc(NC(=O)Nc3cc(C(F)(F)F)ccc3F)c(F)c2)c2cnc(NCCCN3CCOCC3)nc21`, 600 nM; under `CNS(=O)(=O)CCNCc1ccc(-c2ccc3ncnc(Nc4ccc(OCc5ccccc5)cc4)c3c2)o1`, 730 nM.
The same measure for `Cc1cc2c(cc1C(F)(F)F)N(C(=O)Nc1ccc(OCCN(C)C)c(C(F)(F)F)c1)CC2`: 910 nM.
As to `COc1ccccc1CCNc1nc(C)cc(N[C@@H](Cc2ccccc2)C(=O)NCCCOC(C)C)n1`, the IC50 came out at 860 nM.
In the case of `CC(CN1CCN(C)CC1)C(=O)Nc1cccc(-c2cccc(-c3nc4ccccc4[nH]3)c2)c1` (configuration not stated), the IC50 was 1010 nM.
`COc1cc(C)nc2ccc(NC(=O)Nc3ccc4nc(C)cc(OC)c4c3)cc12` displayed an IC50 of 550 nM.
The same measure for `Cc1ccc(O)cc1Nc1ccnc2ccc(-c3cccc(CNCCN(C)C)c3)cc12`: 610 nM.
The same measure for `OCc1ccc2nc3c(cc2c1)-c1cccc2cccc-3c12`: 660 nM.
Under `CCCCOc1cc2c(cc1OCC)C(C=Cc1ccc(Cl)cc1Cl)=NCC2` stands 400 nM.
`CC(C)c1ccc(Cn2cc(-c3ccncc3)c3cc(OCc4ccccc4)ccc32)cc1` yielded an IC50 of 710 nM.
Under `CC(C)(C)c1nn(-c2ccc(Cl)cc2)c2[nH]c(=O)c(CNC3CCCC3)cc12` stands 230 nM; under `NC1CCCN(Cc2cccc(-c3ccc(-c4nc5ccc(C(F)(F)F)cc5[nH]4)cc3)c2)C1` (configuration not stated), 520 nM.
Under `CCc1ccc(C2=Nn3c(nnc3-c3cccs3)SC2)cc1` stands 1290 nM.
Under `COCCN1CCC(C(=O)NCC(C)(C)c2nc(-c3ccc(Br)c(O)c3)c(-c3ccncc3)[nH]2)CC1` stands 910 nM.
`O=C(Nc1ccc(N2CCCN(Cc3cccc(F)c3)CC2)cc1)c1ccccc1` came in with an IC50 of 960 nM. This IC50 and that of the compound before are within 1.5-fold of each other.
Under `O=C(Cc1cccc(O)c1)Nc1ccc(-c2cccc(-c3nc4ccc(C(F)(F)F)cc4[nH]3)c2)cc1` stands 980 nM.
The same measure for `COc1ccc(Nc2cc(C)nc(Nc3ccc(NC(C)=O)cc3)n2)cc1`: 860 nM.
The same measure for `CCN(CC)S(=O)(=O)c1ccc(CCOCCCCCNCC(O)c2cc(Cl)c(N)c(Cl)c2)s1` (configuration not stated): 860 nM.
For the compound `Cc1cc(N[C@@H](Cc2ccccc2)C(=O)Nc2ccccc2)nc(NCCc2ccccn2)n1`, the IC50 was found to be 870 nM.
In turn, `CCN(CC)CCN(Cc1ccc(-c2ccc(C(F)(F)F)cc2)cc1)C(=O)Cn1c(CCc2cc(F)ccc2F)nc(=O)c2ccccc21` had an IC50 of 830 nM. This IC50 and that of the compound before are within 1.5-fold of each other.
Under `CCCCN(CCCC)Cc1cc(N(C)c2ccc([N+](=O)[O-])cn2)ccc1O` stands 540 nM.
Under `C=CC[C@H](NC(=O)c1ccc(NS(=O)(=O)c2ccc3nc(N)[nH]c(=O)c3c2)cc1)C(=O)OCCCC` stands 150 nM; under `CCCN(CCCCNC(=O)c1ccc(-c2cccnc2)cc1)C1CCc2c(O)cccc2C1` (configuration not stated), 1120 nM; under `COc1cccc(O)c1CN1CCC2(CCCN(Cc3ccc(F)cc3)C2)C1` (configuration not stated), 870 nM.
Under `C=CCNc1cc(-c2ccccn2)nc(-c2ccccn2)n1` stands 470 nM; under `Cc1cccc2[nH]c(-c3cccc(-c4cccc(NC(=O)CCc5cnc[nH]5)c4)c3)nc12`, 550 nM; under `CN(C)CCNc1cc(-c2ccc3ccccc3c2)nc2ccccc12`, 350 nM.
`c1cc(CNCC2CCN(CC3CCCCC3)CC2)cc(-n2ccnc2)c1` returned an IC50 of 540 nM.
Under `COc1ccc(CNCc2ccsc2)cc1-c1ccc(OC)c(S(=O)(=O)NCCN2CCCC2)c1` stands 920 nM; under `O=C(NC1CC1)c1ccc(N2CCOc3ccc(Cl)cc32)s1`, 800 nM.
Under `Oc1ccc(Nc2nc(NCc3ccco3)c3ccccc3n2)cc1` stands 670 nM; under `CN(C)Cc1ccc(-c2ccc3c(Nc4ccc(Oc5ccccn5)cc4)ccnc3c2)o1`, 160 nM; under `CO/C(=C\C=C\c1cc2cc(Cl)c(Cl)cc2[nH]1)C(=O)NC1C[C@H]2CC[C@@H](C1)N2C` (some centres not stated), 1030 nM.
Under `CC(=O)N/N=C/[C@H](CCc1ccccc1)NC(=O)[C@H](CC(C)C)NC(=O)c1ccc(F)cc1` stands 690 nM.
As for `Cn1c(=O)n(C)c2cc(CNCCNc3ccnc4cc(Cl)ccc34)ccc21`, the IC50 is 140 nM.
Under `Fc1cccc(-c2ccc3c(c2)CC(NCc2c[nH]c4cnccc24)C3)c1` (configuration not stated) stands 480 nM; under `OC(CNC1CCCCC1)c1ccc(Cl)c(Cl)c1` (configuration not stated), 700 nM.
The same measure for `O=C(Nc1cccc(C(F)(F)F)c1)c1ccc(S(=O)(=O)NC2CCN(CC3CCCCC3)CC2)cc1`: 1160 nM; for `CCc1cn2c3c(cc(C(=O)N[C@@H](Cc4cccc(Cl)c4)[C@H](O)CNC4CC4)cc13)N(C)S(=O)(=O)CC2`: 150 nM.
Compound `Cc1nnsc1C(=O)Nc1ccc(-c2ccc(-c3nc4ccccc4[nH]3)s2)cc1` yielded an IC50 of 820 nM.
